Measured values as given in patent US7829666B2, “Maurotoxin, PI1 and HSTX1 derivatives” (Cellpep Pharma Inc., priority 2000, dated 2010).
Bridge positions count the residues as written; N and C are the ends. Square brackets hold non-standard residues; d marks the D form. Peptide text beside a SMILES is read from it. Abu = CC[C@H](N)C(=O)O

Experiments:
[1] = target: T1, mammalian voltage-gated Kv1.2 channel subtype (Homo sapiens, UniProt P16389); assay: Blocking activity on voltage-gated Kv1.2 channel; type: cell-based
Source text: (§1) In one preferred derivative, the substitution of the MTX half-cystine residues (by amino butyrate derivatives) located at positions 9, 19, 29, and 34 (corresponding by numbers to C2, C4, C6, and C8) results in a two disulfide-bridged MTX analog, i.e. VSCTGSKDAbuYAPCRKQTGAbuPNAKCINKSAbuKCYGAbu-NH2 [SEQ. ID NO. 8], with novel, non-native arrangement of the half-cystine pairings (Cys3-Cys24 and Cys13-Cys31).
An alternative approach to replacement of Cys residues with Abu is the replacement of one or two amino acid residues in natural MTX with other residues which prevent the folding of the molecule in such a way that the unconventional C1-C5, C2-C6, C3-C7 and C4-C8 disulfide bridge arrangement can occur. For instance, if neither of the residues at positions 32 and 33 is a Gly or Pro residue, the folding is altered in such a way that the MTX derivative adopts the conventional C1-C5, C2-C6, C3-C7 and C4-C8 of Pi1 and HsTx1. In particular, replacement of the Gly residue at position 33 by an Ala residue substitution, forming [A33]-MTX [SEQ. ID NO. 4], is effective. Substitution of Arg14 and/or Lys15 by Gln to give [Q14]-MTX [SEQ. ID NO. 5], [Q15]-MTX [SEQ. ID NO. 6] or [Q14,Q15]-MTX [SEQ. ID NO. 7] also induces half-cystine pairings between Cys3-Cys24, Cys9-Cys29, Cys13-Cys31 and Cys19-Cys34.

C57/BL6 mice = assay: Lethality/toxicity in C57/BL6 mice, intracerebroventricular injection; type: in vivo
Source text: (§2) The MTX derivatives, as well as the MTX structurally homologous Pi1 or HsTx1 derivatives, of the invention are thus of potential therapeutic value for treating mammalian (including human) pathologies that are associated with a dysfunctioning of Ca^2+-activated and/or voltage-gated Kv channel subtypes. Such pathologies include immune and/or neurological diseases like multiple sclerosis, Parkinson's and Alzheimer's diseases, both thought to be associated with a dysfunctioning of Ca^2+-activated and/or voltage-gated K^+ channel subtype(s). The axonal impulse propagation ensures a continued transmission of nervous signals to remote targets. In a number of neuropathies, the nervous conduction is either slowed down or locked. This could be linked to alteration or functional changes of myelinated fibres (demyelinisation or alteration of the membrane properties at the Ranvier nodes). Among these neuropathies are multiple sclerosis (central nervous system; CNS) and Guillain-Barr syndrome (peripheral nervous system). It is now well-admitted that alteration of the axonal function is related to the presence of voltage-gated (Kv) K^+ channels (there is a widespread distribution of Kv1.1 and Kv1.2 channel subtypes in nerve terminals throughout the brain, whereas Kv channels—independent of their subtypes—are considered to be ubiquitous, including in the peripheral nervous system), and possibly Ca^2+-activated K^+ channels. In the previously cited neuropathies, Ca^2+-activated K^+ channels and Kv channels are either abnormally exposed in demyelinated or inflammatory lesions, or over-expressed. Therefore, selective K^+-channel blockers, including Ca^2+-activated K^+ channel-acting and/or Kv-acting MTX/Pi1/HsTx1-derived peptides such as [Q15]-MTX, Pi1 amidated at C-terminus, [Abu9, 19, 29, 34]-MIX, are of potential therapeutic value as symptomatic therapy of multiple sclerosis and related neuropathies, as well as for use as selective immuno-suppressant drugs by their blocking action on Ca^2+-activated and/or Kv channels. Further, it can be speculated that such peptide blockers, in the CNS, could enhance transmitter release in pathways affected by progressive neurodegenerative diseases such as Alzheimer's disease.

[2] = tested on: Ca2+-activated K+ channels; assay: Activity of MTX analog on Ca2+-activated K+ channels; type: cell-based
Source text: as §1

rat Kv1.3 channels = rat Kv1.3 channels (Rattus norvegicus, UniProt P15384); details: background statement; cited from earlier work
[3] = target: T1, mammalian voltage-gated Kv1.2 channel subtype; details: background statement; picomolar or nanomolar concentration range; cited from earlier work
[4] = tested on: Ca2+-activated K+ channels, e.g. apamin-sensitive SK channels; details: background statement; cited from earlier work
[5] = Lethality/toxicity in C57/BL6 mice, intracerebroventricular injection; type: in vivo; details: mouse, in vivo
Source text: as §2

T1 sequence (P16389 whole entry): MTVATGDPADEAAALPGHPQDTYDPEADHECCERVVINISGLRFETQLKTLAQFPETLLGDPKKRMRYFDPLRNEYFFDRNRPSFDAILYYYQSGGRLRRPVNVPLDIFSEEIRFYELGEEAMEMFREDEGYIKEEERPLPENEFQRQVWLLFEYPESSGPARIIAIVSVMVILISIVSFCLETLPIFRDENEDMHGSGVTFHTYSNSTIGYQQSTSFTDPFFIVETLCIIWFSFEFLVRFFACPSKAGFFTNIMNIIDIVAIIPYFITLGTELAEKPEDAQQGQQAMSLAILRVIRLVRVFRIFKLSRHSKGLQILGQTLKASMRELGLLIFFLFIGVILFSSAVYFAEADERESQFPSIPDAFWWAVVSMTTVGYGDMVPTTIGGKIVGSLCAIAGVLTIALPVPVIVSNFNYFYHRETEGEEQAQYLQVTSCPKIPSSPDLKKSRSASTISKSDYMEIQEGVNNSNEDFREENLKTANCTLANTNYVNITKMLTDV
Sequence of rat Kv1.3 channels (P15384 whole entry): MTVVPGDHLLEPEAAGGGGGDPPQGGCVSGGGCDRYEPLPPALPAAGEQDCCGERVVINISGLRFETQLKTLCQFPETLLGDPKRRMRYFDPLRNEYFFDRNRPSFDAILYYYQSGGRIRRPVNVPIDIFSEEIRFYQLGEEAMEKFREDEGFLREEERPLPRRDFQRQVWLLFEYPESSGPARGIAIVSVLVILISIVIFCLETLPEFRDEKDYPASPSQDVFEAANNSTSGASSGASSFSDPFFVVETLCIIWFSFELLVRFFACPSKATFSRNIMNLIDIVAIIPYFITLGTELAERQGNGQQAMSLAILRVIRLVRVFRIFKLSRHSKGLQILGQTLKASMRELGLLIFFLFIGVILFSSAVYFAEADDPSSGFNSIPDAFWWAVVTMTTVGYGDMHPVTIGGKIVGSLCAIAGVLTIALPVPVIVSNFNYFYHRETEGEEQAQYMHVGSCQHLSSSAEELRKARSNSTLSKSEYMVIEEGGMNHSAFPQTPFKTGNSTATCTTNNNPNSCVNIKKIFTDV

CC[C@H](NC(=O)CNC(=O)[C@H](Cc1ccc(O)cc1)NC(=O)[C@@H]1CSSC[C@@H]2NC(=O)[C@@H]3CCCN3C(=O)[C@H](C)NC(=O)[C@H](Cc3ccc(O)cc3)NC(=O)[C@H](CC)NC(=O)[C@H](CC(=O)O)NC(=O)[C@H](CCCCN)NC(=O)[C@H](CO)NC(=O)CNC(=O)[C@H]([C@@H](C)O)NC(=O)[C@@H](NC(=O)[C@H](CO)NC(=O)[C@@H](N)C(C)C)CSSC[C@H](NC(=O)[C@H](CCCCN)NC(=O)[C@H](C)NC(=O)[C@H](CC(N)=O)NC(=O)[C@@H]3CCCN3C(=O)[C@H](CC)NC(=O)CNC(=O)[C@H]([C@@H](C)O)NC(=O)[C@H](CCC(N)=O)NC(=O)[C@H](CCCCN)NC(=O)[C@H](CCCNC(=N)N)NC2=O)C(=O)N[C@@H]([C@@H](C)CC)C(=O)N[C@@H](CC(N)=O)C(=O)N[C@@H](CCCCN)C(=O)N[C@@H](CO)C(=O)N[C@@H](CC)C(=O)N[C@@H](CCCCN)C(=O)N1)C(N)=O [[Abu9, 19, 29, 34]-MTX, VSCTGSKDAbuYAPCRKQTGAbuPNAKCINKSAbuKCYGAbu-NH2] (H-VSCTGSKD[Abu]YAPCRKQTG[Abu]PNAKCINKS[Abu]KCYG[Abu]-NH2; disulfide 3-24, 13-31)
IC50 [1]: 42 nM
lethality/toxicity (C57/BL6 mice; injected intracerebroventricularly, up to 1.25 mg/kg): neither lethal nor toxic
activity on Ca2+-activated K+ channels [2]: remains active

CC[C@H](C)[C@@H]1NC(=O)[C@@H]2CSSC[C@H](NC(=O)[C@H](CO)NC(=O)[C@@H](N)C(C)C)C(=O)N[C@@H]([C@@H](C)O)C(=O)NCC(=O)N[C@@H](CO)C(=O)N[C@@H](CCCCN)C(=O)N[C@@H](CC(=O)O)C(=O)N[C@H]3CSSC[C@H](NC(=O)[C@H](CO)NC(=O)[C@H](CCCCN)NC(=O)[C@H](CC(N)=O)NC1=O)C(=O)N[C@@H](CCCCN)C(=O)N[C@H]1CSSC[C@H](NC(=O)[C@@H]4CCCN4C(=O)[C@H](C)NC(=O)[C@H](Cc4ccc(O)cc4)NC3=O)C(=O)N[C@@H](CCCNC(=N)N)C(=O)N[C@@H](CCC(N)=O)C(=O)N[C@@H](CCC(N)=O)C(=O)N[C@@H]([C@@H](C)O)C(=O)NCC(=O)N[C@@H](CSSC[C@@H](C(N)=O)NC(=O)CNC(=O)[C@H](Cc3ccc(O)cc3)NC1=O)C(=O)N1CCC[C@H]1C(=O)N[C@@H](CC(N)=O)C(=O)N[C@@H](C)C(=O)N[C@@H](CCCCN)C(=O)N2 [[Q15]-MTX] (H-VSCTGSKDCYAPCRQQTGCPNAKCINKSCKCYGC-NH2; disulfide 3-24, 9-29, 13-31, 19-34)
lethality/toxicity (C57/BL6 mice; injected intracerebroventricularly at active concentrations): neither lethal nor toxic

CC[C@H](C)[C@@H]1NC(=O)[C@@H]2CSSC[C@H](NC(=O)[C@H](CO)NC(=O)[C@@H](N)C(C)C)C(=O)N[C@@H]([C@@H](C)O)C(=O)NCC(=O)N[C@@H](CO)C(=O)N[C@@H](CCCCN)C(=O)N[C@@H](CC(=O)O)C(=O)N[C@@H](CSSC[C@@H](C(=O)N[C@@H](CCCCN)C(=O)N[C@H]3CSSC[C@@H](C(N)=O)NC(=O)CNC(=O)[C@H](Cc4ccc(O)cc4)NC3=O)NC(=O)[C@H](CO)NC(=O)[C@H](CCCCN)NC(=O)[C@H](CC(N)=O)NC1=O)C(=O)N[C@@H](Cc1ccc(O)cc1)C(=O)N[C@@H](C)C(=O)N1CCC[C@H]1C(=O)N[C@H]1CSSC[C@H](NC(=O)CNC(=O)[C@H]([C@@H](C)O)NC(=O)[C@H](CCC(N)=O)NC(=O)[C@H](CCCCN)NC(=O)[C@H](CCCNC(=N)N)NC1=O)C(=O)N1CCC[C@H]1C(=O)N[C@@H](CC(N)=O)C(=O)N[C@@H](C)C(=O)N[C@@H](CCCCN)C(=O)N2 [MTX] (H-VSCTGSKDCYAPCRKQTGCPNAKCINKSCKCYGC-NH2; disulfide 3-24, 9-29, 13-19, 31-34)
activity on rat Kv1.3 channels (rat Kv1.3 channels): active
activity on voltage-gated K+ channel subtypes including Kv1.2 [3]: active
activity on Ca2+-activated K+ channels, e.g. apamin-sensitive SK channels [4]: active
LD50 ([5]; other: intracerebroventricular): 4 µg/kg

CC[C@H](C)[C@@H]1NC(=O)[C@@H]2CSSC[C@H](NC(=O)[C@H](CCCCN)NC(=O)[C@@H](NC(=O)[C@@H](N)CC(C)C)C(C)C)C(=O)N[C@@H](CCCNC(=N)N)C(=O)NCC(=O)N[C@@H]([C@@H](C)O)C(=O)N[C@@H](CO)C(=O)N[C@@H](CC(=O)O)C(=O)N[C@H]3CSSC[C@H](NC(=O)[C@H](CCSC)NC(=O)[C@H](CCCNC(=N)N)NC(=O)[C@H](CC(N)=O)NC1=O)C(=O)N[C@@H](CCCCN)C(=O)N[C@H]1CSSC[C@H](NC(=O)[C@@H]4CCCN4C(=O)[C@H](CCCNC(=N)N)NC(=O)CNC3=O)C(=O)N[C@@H](CCC(N)=O)C(=O)N[C@@H](CCC(N)=O)C(=O)N[C@@H](CCC(N)=O)C(=O)N[C@@H]([C@@H](C)O)C(=O)NCC(=O)N[C@@H](CSSC[C@@H](C(N)=O)NC(=O)CNC(=O)[C@H](Cc3ccc(O)cc3)NC1=O)C(=O)N1CCC[C@H]1C(=O)N[C@@H](CC(N)=O)C(=O)N[C@@H](CO)C(=O)N[C@@H](CCCCN)C(=O)N2 [Pi1] (H-LVKCRGTSDCGRPCQQQTGCPNSKCINRMCKCYGC-NH2; disulfide 4-25, 10-30, 14-32, 20-35; N-terminus and C-terminus assumed)
activity on rat Kv1.3 channels (rat Kv1.3 channels): active on rat Kv1.3 channels contrary to synthetic Pi1
activity on Ca2+-activated K+ channels, e.g. apamin-sensitive SK channels [4]: active
LD50 [5]: 10 µg/kg

HsTx1
activity on Ca2+-activated K+ channels, e.g. apamin-sensitive SK channels [4]: inactive
